Columns and labels:
[1] = test system: fungi tyrosinase; experiment: Tyrosinase inhibition (L-Dopa to dopachrome, absorption at 475 nm); assay type: biochemical; settings: 15 min at room temperature
Description: The inhibition of fungi tyrosinase was determined as a function of different concentrations of creatinine (0.05 to 1.7% by volume) by reference to the enzymatic reaction of L-Dopa to dopachrome. The absorption maximum of the dopachrome is at a wavelength of 475 nm. The tyrosinase inhibition is calculated in accordance with the following equation:
Inhibition [%]={100−[(Esample*100)/Ereference]} (1)
each measurement was carried out in duplicate, with parallel mixtures. The variation of the method is ±10%,
25 mM acetate buffer (pH 4.9): dilute from 0.2 M acetate buffer (pH 4.9) (Sigma) Phosphate buffer (pH 7): Titrosol (Merck) 20 mM L-DOPA (in acetate buffer) Tyrosinase stock solution: 40 U/ml of phosphate buffer Stock solution of creatinine: 0.45 M in phosphate buffer
The DOPA solution and the tyrosinase stock solution were prepared only prior to the start of the experiment. The L-DOPA solutions should be stored in a dark place and in vessels which can be sealed tightly.
500 μL of DOPA stock solution 400 μL of creatinine solution or phosphate buffer (reference) 100 μL of tyrosinase stock solution Following the addition of the enzyme, the samples were thoroughly mixed using a “Reax Top” (Heidolph). Following an incubation period of 15 min at room temperature, the absorption at 475 nm was determined. The measurement was carried out using a “Helios Beta” spectrophotometer from Unicam.

[2] = test system: MelanoDerm in vitro skin model (melanocytes); experiment: In vitro skin model test (MelanoDerm), melanin determined quantitatively; assay type: cell-based; settings: for Melanin: applied every 48 hours
Description: The skin-lightening effect was validated on an in vitro skin model, the MelanoDerm™ from MatTek. This model is very similar in structure and function to the natural skin and has the cell types relevant in the epidermis including the melanocytes, which are responsible for the synthesis of the main pigment melanin. Further information can be found, for example, in M. K. King et al. in Proceedings of Society of Cosmetic Chemists Annual Scientific Meeting and Technology Showcase 1998, 35-36. Creatinine, kojic acid dipalmitate as positive standard and water as negative control were applied every 48 hours over a period of 21 days to the in vitro skin model.
The melanin produced by the melanocytes was determined quantitatively on the 17th and 21st day.

Row | SMILES | Tyrosinase inhibition (%) ([1]; creatinine 0.05 % by volume) | Tyrosinase inhibition (%) ([1]; creatinine 0.30 % by volume) | Tyrosinase inhibition (%) ([1]; creatinine 0.60 % by volume) | Tyrosinase inhibition (%) ([1]; creatinine 0.90 % by volume) | Tyrosinase inhibition (%) ([1]; creatinine 1.10 % by volume) | Tyrosinase inhibition (%) ([1]; creatinine 1.40 % by volume) | Tyrosinase inhibition (%) ([1]; creatinine 1.70 % by volume) | Melanin ([2]; Day 17) [µg] | Melanin ([2]; Day 21) [µg] | Effectiveness compared with kojic acid dipalmitate (positive standard) ([2]; upon prolonged application)
1 | CN1CC(=O)NC1=N [Creatinine, 2-imino-N-methylhydantoin] | 1.77 | 9.97 | 14.21 | 20.75 | 24.81 | 28.15 | 32.18 | 94.5 | 12.67 | twice as effective
2 | CCCCCCCCCCCCCCCC(=O)OCc1cc(=O)c(OC(=O)CCCCCCCCCCCCCCC)co1 [Kojic dipalmitate, kojic acid dipalmitate, reference compound] |  |  |  |  |  |  |  | 102.5 | 82.67 | 

From patent US20080146633A1, “COMPOSITIONS FOR SKIN LIGHTENING AND TONING DOWN PIGMENT DISORDERS, COMPRISING CREATININE AND/OR CREATININE DERIVATIVES AS ACTIVE SUBSTANCES” (GOLDSCHMIDT GMBH, priority 2002, published 2008)
